From ChEMBL document CHEMBL4304804, “Synthesis and biological evaluation of calycanthaceous alkaloid analogs” (Bioorg Med Chem, 2019)
pIC50: −log10 of the molar value. Converted amounts (≈) assume the structure as drawn. The source made the active and inactive calls. The calls are words filed in the database; no cut-off is given here.

How the values were obtained:
Verticillium dahliae = assay: Antifungal activity against Verticillium dahliae assessed as reduction in fungal cell growth incubated for 48 hrs by serial dilution method; format: functional
[1] = test system: Fusarium oxysporum f. sp. vasinfectum; assay: Antifungal activity against Fusarium oxysporum sp. vasinfectum assessed as reduction in fungal cell growth incubated for 48 hrs by serial dilution method; format: functional
Cytospora = assay: Antifungal activity against Cytospora juglandis assessed as reduction in fungal cell growth incubated for 48 hrs by serial dilution method; format: functional
Aspergillus flavus = assay: Antifungal activity against Aspergillus flavus assessed as reduction in fungal cell growth incubated for 48 hrs by serial dilution method; format: functional
Penicillium citrinum = assay: Antifungal activity against Penicillium citrinum assessed as reduction in fungal cell growth incubated for 48 hrs by serial dilution method; format: functional
Fusarium oxysporum = assay: Antifungal activity against Fusarium oxysporum assessed as reduction in fungal cell growth incubated for 48 hrs by serial dilution method; format: functional
[2] = test system: Colletotrichum orbiculare; assay: Antifungal activity against Colletotrichum orbiculare assessed as reduction in fungal cell growth incubated for 48 hrs by serial dilution method; format: functional
Aspergillus niger = assay: Antifungal activity against Aspergillus niger assessed as reduction in fungal cell growth incubated for 48 hrs by serial dilution method; format: functional
Curvularia lunata = assay: Antifungal activity against Curvularia lunata assessed as reduction in fungal cell growth incubated for 48 hrs by serial dilution method; format: functional
Escherichia coli = assay: Antibacterial activity against Escherichia coli assessed as reduction in bacterial cell growth incubated for 24 hrs by filter paper assay; format: functional
Pseudomonas aeruginosa = assay: Antibacterial activity against Pseudomonas aeruginosa assessed as reduction in bacterial cell growth incubated for 24 hrs by filter paper assay; format: functional
Ralstonia solanacearum = assay: Antibacterial activity against Ralstonia solanacearum assessed as reduction in bacterial cell growth incubated for 24 hrs by filter paper assay; format: functional
Bacillus cereus = assay: Antibacterial activity against Bacillus cereus assessed as reduction in bacterial cell growth incubated for 24 hrs by filter paper assay; format: functional
Staphylococcus aureus = assay: Antibacterial activity against Staphylococcus aureus assessed as reduction in bacterial cell growth incubated for 24 hrs by filter paper assay; format: functional
Candida = assay: Antifungal activity against […] assessed as reduction in fungal cell growth incubated for 48 hrs by serial dilution method; format: functional
Cryptococcus neoformans = assay: Antifungal activity against Cryptococcus neoformans assessed as reduction in fungal cell growth incubated for 48 hrs by serial dilution method; format: functional
Candida tropicalis = assay: Antifungal activity against Candida tropicalis assessed as reduction in fungal cell growth incubated for 48 hrs by serial dilution method; format: functional
Acetylcholinesterase = Acetylcholinesterase (Electrophorus electricus, UniProt O42275); assay: Inhibition of electric eel AChE by Ellman's colorimetry
Acetylcholinesterase, sequence (O42275 whole entry): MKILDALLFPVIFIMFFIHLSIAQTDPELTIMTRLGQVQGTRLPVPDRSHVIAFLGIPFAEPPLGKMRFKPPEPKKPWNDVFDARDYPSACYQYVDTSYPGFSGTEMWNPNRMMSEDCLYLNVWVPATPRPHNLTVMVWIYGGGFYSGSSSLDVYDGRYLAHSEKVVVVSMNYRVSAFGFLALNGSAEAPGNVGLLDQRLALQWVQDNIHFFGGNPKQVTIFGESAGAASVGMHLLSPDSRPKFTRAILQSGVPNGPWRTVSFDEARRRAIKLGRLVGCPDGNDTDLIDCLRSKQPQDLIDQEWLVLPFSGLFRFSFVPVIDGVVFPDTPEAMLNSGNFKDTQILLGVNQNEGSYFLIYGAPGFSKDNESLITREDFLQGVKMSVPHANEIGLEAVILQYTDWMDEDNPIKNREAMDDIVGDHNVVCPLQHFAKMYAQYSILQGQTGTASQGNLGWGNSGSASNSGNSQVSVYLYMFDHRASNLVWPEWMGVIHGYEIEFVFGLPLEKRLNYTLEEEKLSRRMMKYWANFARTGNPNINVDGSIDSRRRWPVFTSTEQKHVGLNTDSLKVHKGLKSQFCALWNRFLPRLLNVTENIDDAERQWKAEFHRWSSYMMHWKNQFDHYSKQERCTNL

SMILES	MIC (Verticillium dahliae)	MIC [1]	MIC (Cytospora)	MIC (Aspergillus flavus)	MIC (Penicillium citrinum)	MIC (Fusarium oxysporum)	MIC [2]	MIC (Aspergillus niger)	MIC (Curvularia lunata)	MIC (Escherichia coli)	MIC (Pseudomonas aeruginosa)	MIC (Ralstonia solanacearum)	MIC (Bacillus cereus)	MIC (Staphylococcus aureus)	MIC (Candida)	MIC (Cryptococcus neoformans)	MIC (Candida tropicalis)	pIC50 (Acetylcholinesterase)
Cc1ccccc1CN1c2ccccc2C2(Cc3ccccc3C)CCN(C(=O)c3ccccc3C)C12 (stereo not drawn)	250 µg/mL (≈ 514 µM)	250 µg/mL (≈ 514 µM)	250 µg/mL (≈ 514 µM)	250 µg/mL (≈ 514 µM)	250 µg/mL (≈ 514 µM)	250 µg/mL (≈ 514 µM)	inactive	125 µg/mL (≈ 257 µM)	62.5 µg/mL (≈ 128 µM)	inactive	inactive	125 µg/mL (≈ 257 µM)	250 µg/mL (≈ 514 µM)	250 µg/mL (≈ 514 µM)	250 µg/mL (≈ 514 µM)	inactive	250 µg/mL (≈ 514 µM)	3.64
CCCC(=O)N1CCCC2(O)c3ccccc3N(C)C12 (stereo not drawn)	250 µg/mL (≈ 911 µM)	inactive	inactive	inactive	inactive	inactive	inactive	inactive	inactive	inactive	250 µg/mL (≈ 911 µM)	31.2 µg/mL (≈ 114 µM)	inactive	inactive	inactive	inactive	inactive	3.92
CCCCCCC(=O)N1CCC2(Cc3cccc(C)c3)c3ccccc3N(Cc3cccc(C)c3)C12 (stereo not drawn)	125 µg/mL (≈ 260 µM)	250 µg/mL (≈ 520 µM)	62.5 µg/mL (≈ 130 µM)	250 µg/mL (≈ 520 µM)	250 µg/mL (≈ 520 µM)	125 µg/mL (≈ 260 µM)	250 µg/mL (≈ 520 µM)	250 µg/mL (≈ 520 µM)	62.5 µg/mL (≈ 130 µM)	250 µg/mL (≈ 520 µM)	125 µg/mL (≈ 260 µM)	125 µg/mL (≈ 260 µM)	125 µg/mL (≈ 260 µM)	250 µg/mL (≈ 520 µM)	250 µg/mL (≈ 520 µM)	inactive	250 µg/mL (≈ 520 µM)	4.74
Cc1cccc(CN2c3ccccc3C3(Cc4cccc(C)c4)CCN(C(=O)C(F)(F)F)C23)c1 (stereo not drawn)	inactive	inactive	250 µg/mL (≈ 538 µM)	250 µg/mL (≈ 538 µM)	inactive	250 µg/mL (≈ 538 µM)	inactive	inactive	inactive	inactive	inactive	inactive	inactive	inactive	inactive	inactive	inactive	5.47
CCCCC(=O)N1CCCC2(O)c3ccccc3N(C)C12 (stereo not drawn)	250 µg/mL (≈ 867 µM)	inactive	inactive	inactive	inactive	inactive	inactive	inactive	inactive	250 µg/mL (≈ 867 µM)	250 µg/mL (≈ 867 µM)	62.5 µg/mL (≈ 217 µM)	inactive	125 µg/mL (≈ 433 µM)	inactive	inactive	inactive	4.56
Cc1cccc(CN2c3ccccc3C3(Cc4cccc(C)c4)CCN(C(=O)c4ccccc4C)C23)c1 (stereo not drawn)	7.81 µg/mL (≈ 16 µM)	125 µg/mL (≈ 257 µM)	125 µg/mL (≈ 257 µM)	250 µg/mL (≈ 514 µM)	inactive	125 µg/mL (≈ 257 µM)	250 µg/mL (≈ 514 µM)	250 µg/mL (≈ 514 µM)	62.5 µg/mL (≈ 128 µM)	inactive	inactive	125 µg/mL (≈ 257 µM)	125 µg/mL (≈ 257 µM)	inactive	250 µg/mL (≈ 514 µM)	inactive	250 µg/mL (≈ 514 µM)	3.95
CCCCCC(=O)N1CCC2(Cc3ccccc3C)c3ccccc3N(Cc3ccccc3C)C12 (stereo not drawn)	62.5 µg/mL (≈ 134 µM)	inactive	125 µg/mL (≈ 268 µM)	250 µg/mL (≈ 536 µM)	250 µg/mL (≈ 536 µM)	125 µg/mL (≈ 268 µM)	250 µg/mL (≈ 536 µM)	250 µg/mL (≈ 536 µM)	125 µg/mL (≈ 268 µM)	inactive	125 µg/mL (≈ 268 µM)	250 µg/mL (≈ 536 µM)	inactive	inactive	125 µg/mL (≈ 268 µM)	inactive	inactive	3.66
CCCC(=O)N1CCC2(Cc3cccc(C)c3)c3ccccc3N(Cc3cccc(C)c3)C12 (stereo not drawn)	62.5 µg/mL (≈ 142 µM)	inactive	62.5 µg/mL (≈ 142 µM)	250 µg/mL (≈ 570 µM)	inactive	125 µg/mL (≈ 285 µM)	250 µg/mL (≈ 570 µM)	125 µg/mL (≈ 285 µM)	inactive	250 µg/mL (≈ 570 µM)	250 µg/mL (≈ 570 µM)	250 µg/mL (≈ 570 µM)	250 µg/mL (≈ 570 µM)	250 µg/mL (≈ 570 µM)	250 µg/mL (≈ 570 µM)	inactive	125 µg/mL (≈ 285 µM)	5.19
CCCCCC(=O)N1CCC2(Cc3cccc(C)c3)c3ccccc3N(Cc3cccc(C)c3)C12 (stereo not drawn)	15.6 µg/mL (≈ 33.5 µM)	inactive	125 µg/mL (≈ 268 µM)	250 µg/mL (≈ 536 µM)	250 µg/mL (≈ 536 µM)	125 µg/mL (≈ 268 µM)	250 µg/mL (≈ 536 µM)	250 µg/mL (≈ 536 µM)	inactive	inactive	125 µg/mL (≈ 268 µM)	250 µg/mL (≈ 536 µM)	250 µg/mL (≈ 536 µM)	inactive	250 µg/mL (≈ 536 µM)	inactive	250 µg/mL (≈ 536 µM)	3.85
CN1c2ccccc2C2(O)CCCN(C(=O)c3ccccc3F)C12 (stereo not drawn)	125 µg/mL (≈ 383 µM)	inactive	inactive	inactive	inactive	inactive	inactive	inactive	inactive	250 µg/mL (≈ 766 µM)	250 µg/mL (≈ 766 µM)	125 µg/mL (≈ 383 µM)	inactive	inactive	inactive	inactive	inactive	6.01
Cc1cccc(CN2c3ccccc3C3(Cc4cccc(C)c4)CCN(C(=O)C(C)C)C23)c1 (stereo not drawn)	250 µg/mL (≈ 570 µM)	inactive	250 µg/mL (≈ 570 µM)	250 µg/mL (≈ 570 µM)	inactive	125 µg/mL (≈ 285 µM)	250 µg/mL (≈ 570 µM)	250 µg/mL (≈ 570 µM)	inactive	250 µg/mL (≈ 570 µM)	inactive	inactive	15.6 µg/mL (≈ 35.6 µM)	inactive	250 µg/mL (≈ 570 µM)	inactive	250 µg/mL (≈ 570 µM)	4.87
